Measurements taken from patent US4178442A, “Novel cinnamoyles piperazines and homopiperazines, the method of preparing them and their application in therapeutics” (Delalande S. A., priority 1977, dated 1979).
Read-outs that look alike come from different tables or passages of the source.

Tested on: anaesthetized dog
Assay: Antiangorous activity on anaesthetized dog: consumption of oxygen in the left ventricule and cardiac effort (KATZ's index)
Assay type: in vivo
Settings: for inhibition in vivo at 2.5 mg/kg / inhibition in vivo at […] / inhibition in vivo at 0.625 mg/kg / inhibition in vivo at 10 mg/kg: Canis lupus familiaris, iv; for inhibition in vivo at […]: 0.15 mg/kg i.v. slow perfusion
Method: The antiangorous activity was tested on an anaesthetized dog (sodium pentobarbital 30 mg/kg/i.v.).
The consumption of oxygen in the left ventricule was estimated by the product of the coronary venous flow and the coronary arteriovenous difference in oxygen (% volume).
The coronary venous flow was measured at the coronary venous sinus by means of a modified Morawitz cannula, introduced under radioscopic control.
The cardiac effort was estimated according to KATZ's index, by the product of the average arterial pressure and the cardiac frequency.
The cardiac frequency was estimated from the electrocardiogram recorded with D2 derivation.
It should be noted that the compounds tested were injected intravenously with slow perfusion.

[1] = 2.5 mg/kg i.v. slow perfusion, read-out: Diminution in consumption of O2
[2] = 2.5 mg/kg i.v. slow perfusion, read-out: Diminution in the cardiac effort (IK)
[3] = read-out: Diminution in consumption of O2
[4] = read-out: Diminution in the cardiac effort (IK)
[5] = 0.625 mg/kg i.v. slow perfusion
[6] = 0.625 mg/kg i.v. slow perfusion, read-out: Diminution in consumption of O2
[7] = 0.625 mg/kg i.v. slow perfusion, read-out: Diminution in the cardiac effort (IK)

COc1cc(/C=C/C(=O)N2CCN(CC(O)COc3ccc(C(C)=O)c4c3CCC4)CC2)cc(OC)c1OC (stereo not drawn) [760 852]
Diminution in consumption of O2: in time (2.5 mg/kg i.v. slow perfusion): 30 min | Diminution in the cardiac effort (IK): in time (2.5 mg/kg i.v. slow perfusion): 45 min | inhibition in vivo at 2.5 mg/kg [1]: 44% | inhibition in vivo at 2.5 mg/kg [2]: 23%

COc1cc(/C=C/C(=O)N2CCN(CC(O)CSc3ccc(C(C)=O)c4c3OCCO4)CC2)cc(OC)c1OC (stereo not drawn) [780 384]
inhibition in vivo at […] [3]: 43% | inhibition in vivo at […] [4]: 25%

CNC(=O)c1ccc(OCCCN2CCN(C(=O)/C=C/c3cc(OC)c(OC)c(OC)c3)CC2)c2c1OCCO2 [771 163]
Diminution in consumption of O2: in time [5]: 30 min | Diminution in the cardiac effort (IK): in time [5]: 40 min | inhibition in vivo at 0.625 mg/kg [6]: 61% | inhibition in vivo at 0.625 mg/kg [7]: 20%

COc1cc(/C=C/C(=O)N2CCN(CC(O)COc3ccc(Cl)cc3C)CC2)cc(OC)c1OC (stereo not drawn) [770 966]
Diminution in the cardiac effort (IK): in time (2.5 mg/kg i.v. slow perfusion): 30 min | inhibition in vivo at 2.5 mg/kg [1]: 7% | inhibition in vivo at 2.5 mg/kg [2]: 46%

COc1ccc(NC(=O)Nc2ccc(OCC(O)CN3CCN(C(=O)/C=C/c4cc(OC)c(OC)c(OC)c4)CC3)c3c2OCCO3)cc1 (stereo not drawn) [780 223]
Diminution in consumption of O2: in time (2.5 mg/kg i.v. slow perfusion): 90 min | Diminution in the cardiac effort (IK): in time (2.5 mg/kg i.v. slow perfusion): 90 min | inhibition in vivo at 2.5 mg/kg [1]: 62% | inhibition in vivo at 2.5 mg/kg [2]: 35%

COc1cc(/C=C/C(=O)N2CCN(CC(O)COc3ccc(C(C)=O)c4c3CCCC4)CC2)cc(OC)c1OC (stereo not drawn) [780 128]
Diminution in consumption of O2: in time (2.5 mg/kg i.v. slow perfusion): 23 min | Diminution in the cardiac effort (IK): in time (2.5 mg/kg i.v. slow perfusion): 23 min | inhibition in vivo at 2.5 mg/kg [1]: 57% | inhibition in vivo at 2.5 mg/kg [2]: 17%

COc1cc(/C=C/C(=O)N2CCN(CC(O)COc3ccc(C(=O)OC(C)C)c4c3OCCO4)CC2)cc(OC)c1OC (stereo not drawn) [780 373]
Diminution in consumption of O2: in time (2.5 mg/kg i.v. slow perfusion): 30 min | Diminution in the cardiac effort (IK): in time (2.5 mg/kg i.v. slow perfusion): 30 min | inhibition in vivo at 2.5 mg/kg [1]: 66% | inhibition in vivo at 2.5 mg/kg [2]: 25%

COc1cc(/C=C/C(=O)N2CCN(CC(O)COc3ccc(C(C)=O)cc3OC)CC2)cc(OC)c1 (stereo not drawn) [780 404]
Diminution in consumption of O2: in time (2.5 mg/kg i.v. slow perfusion): 15 min | Diminution in the cardiac effort (IK): in time (2.5 mg/kg i.v. slow perfusion): 30 min | inhibition in vivo at 2.5 mg/kg [1]: 69% | inhibition in vivo at 2.5 mg/kg [2]: 44%

COc1cc(C=O)ccc1OCC(O)CN1CCN(C(=O)/C=C/c2cc(OC)c(OC)c(OC)c2)CC1 (stereo not drawn) [780 329]
Diminution in consumption of O2: in time (2.5 mg/kg i.v. slow perfusion): 30 min | Diminution in the cardiac effort (IK): in time (2.5 mg/kg i.v. slow perfusion): 30 min | inhibition in vivo at 2.5 mg/kg [1]: 21% | inhibition in vivo at 2.5 mg/kg [2]: 13%

CCCCCOC(=O)c1ccc(OCC(O)CN2CCN(C(=O)/C=C/c3cc(OC)c(OC)c(OC)c3)CC2)c2c1OCCO2 (stereo not drawn) [780 301]
inhibition in vivo at […] [3]: 40% | inhibition in vivo at […] [4]: 28%

CCCc1ccc(OCC(O)CN2CCN(C(=O)/C=C/c3cc(OC)c(OC)c(OC)c3)CC2)cc1 (stereo not drawn) [780 267]
Diminution in consumption of O2: in time (2.5 mg/kg i.v. slow perfusion): 30 min | inhibition in vivo at 2.5 mg/kg [1]: 27% | inhibition in vivo at 2.5 mg/kg [2]: 8%

CNC(=O)Nc1cc(OC)c(OCC(O)CN2CCN(C(=O)/C=C/c3cc(OC)c(OC)c(OC)c3)CC2)c(OC)c1 (stereo not drawn) [780 357]
Diminution in consumption of O2: in time (2.5 mg/kg i.v. slow perfusion): 15 min | Diminution in the cardiac effort (IK): in time (2.5 mg/kg i.v. slow perfusion): 15 min | inhibition in vivo at 2.5 mg/kg [1]: 43% | inhibition in vivo at 2.5 mg/kg [2]: 21%

CCCCc1oc2ccccc2c1C(=O)c1cc(I)c(OCCN(CC)CC)c(I)c1 [AMIODARONE, reference compound]
Diminution in consumption of O2: in time (10 mg/kg i.v. slow perfusion): 15 min | Diminution in the cardiac effort (IK): in time (10 mg/kg i.v. slow perfusion): 15 min | inhibition in vivo at 10 mg/kg (10 mg/kg i.v. slow perfusion, read-out: Diminution in consumption of O2): 11% | inhibition in vivo at 10 mg/kg (10 mg/kg i.v. slow perfusion, read-out: Diminution in the cardiac effort (IK)): 22%

CNC(=O)Nc1ccc(OCC(O)CN2CCCN(C(=O)/C=C/c3cc(OC)c(OC)c(OC)c3)CC2)c2c1OCCO2 (stereo not drawn) [780 374]
Diminution in consumption of O2: in time (2.5 mg/kg i.v. slow perfusion): 30 min | Diminution in the cardiac effort (IK): in time (2.5 mg/kg i.v. slow perfusion): 15 min | inhibition in vivo at 2.5 mg/kg [1]: 39% | inhibition in vivo at 2.5 mg/kg [2]: 31%

CNC(=O)Nc1ccc(OCC(O)CN2CCN(C(=O)/C=C/c3cc(OC)c(OC)c(OC)c3)CC2)c2ccccc12 (stereo not drawn) [771 031]
inhibition in vivo at […] [3]: 20% | inhibition in vivo at […] [4]: 25%

COc1cc(/C=C/C(=O)N2CCN(CC(O)COc3ccc(C(=O)OC(C)(C)C)c4c3OCCO4)CC2)cc(OC)c1OC (stereo not drawn) [780 369]
Diminution in consumption of O2: in time [5]: 15 min | Diminution in the cardiac effort (IK): in time [5]: 15 min | inhibition in vivo at 0.625 mg/kg [6]: 37% | inhibition in vivo at 0.625 mg/kg [7]: 4%

CNC(=O)Nc1ccc(OCC(O)CN2CCN(C(=O)/C=C/c3cc(OC)c(OC)c(OC)c3)CC2)c2c1CCC2 (stereo not drawn) [771 153]
Diminution in consumption of O2: in time (2.5 mg/kg i.v. slow perfusion): 23 min | Diminution in the cardiac effort (IK): in time (2.5 mg/kg i.v. slow perfusion): 40 min | inhibition in vivo at 2.5 mg/kg [1]: 31% | inhibition in vivo at 2.5 mg/kg [2]: 63%
